Assay: gradient 5% acetonitrile 3 min, to 50% in 2 min, to 85% in 15 min, held 3 min, 100 µL/min
Conditions: column: Zorbax Extend-C18 2.1 x 50 mm; eluents: water / acetonitrile, 0.1% formic acid
Method in brief: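 Each retention time is based on an adduct peak selected computationally and verified by manual inspection. Measurements used HPLC–quadrupole time-of-flight mass spectrometry in positive and negative ionization mode on mixtures of ~100 pure standards. Chromatography ran on a Zorbax Extend-C18 column (2.1 × 50 mm, 1.8 μm) at 100 μL/min with water and acetonitrile, each containing 0.1% formic acid, and dead and dwell volumes of 40 μL and 900 μL.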

| RP-LC retention time | SMILES |
| --- | --- |
| 692 s | NS(=O)(=O)c1ccc(CCNC(=O)c2nc(CCS(=O)(=O)c3ccccc3)no2)cc1 |
| 1030 s | Fc1ccc(-c2noc(Cc3nnc(-c4cc(F)cc(F)c4)o3)n2)cc1 |
| 787 s | CCc1nc(-c2csc(S(=O)(=O)N3CCCC(C(=O)NC4CC4)C3)c2)no1 (stereo unspecified) |
| 628 s | CCCN1CCN(C(=O)CN2C(=O)C3CCCCN3c3ccc(S(=O)(=O)N(C)C)cc32)CC1 (stereo unspecified) |
| 739 s | Cc1cc(C)n(-c2ccnc(N3CCC(C(=O)NCC4CC4)CC3)n2)n1 |
| 813 s | Cc1cccc(N(C)S(=O)(=O)c2ccc3c(c2)CCCC(=O)N3)c1 |
| 596 s | CC(C)N1CCN(C(=O)c2cn(-c3cc(N4CCSCC4)ncn3)cn2)CC1 |
| 1330 s | CCn1ccc2c(cc(C(=O)Nc3ccc(OC)c(Cl)c3)n2C)c1=O |
| 928 s | Cc1ccc(NS(=O)(=O)c2ccc(-c3c(C)noc3C)cc2)cc1 |
| 1110 s | COc1cccc(-c2noc(COC(=O)C3=CN(Cc4ccccc4)S(=O)(=O)N=C3C)n2)c1 |
| 784 s | CCN1C(=O)COc2ccc(-c3nc(NC(=O)c4cccnc4)sc3C)cc21 |
| 554 s | CCN1CCN(CCCNC(=O)Cn2cnc3nc4c(cc3c2=O)CCCC4)CC1 |
| 764 s | CC(CNC(=O)C1CCN(S(=O)(=O)c2cn(C(C)C)cn2)CC1)c1ccccc1 (stereo unspecified) |
| 654 s | Cc1ccc(-c2[nH]ncc2CN2CC(F)(F)C[C@H]2CN2CCOCC2)cc1C |
| 875 s | COC(=O)c1ccccc1Sc1c(-c2ccccc2)nc2ncccn12 |
| 654 s | COc1cccc(-c2cc3n(n2)CCCN(C(=O)c2ccc(OC)c(OC)c2)C3)c1 |
| 656 s | COc1ccccc1NC(=O)Cn1cnc2nc(N3CCC(C(=O)NC4CC4)CC3)sc2c1=O |

| RP-LC retention time | SMILES |
| --- | --- |
| 1200 s | CCN(CC)S(=O)(=O)c1ccc(C)c(-c2nnc(-c3ccc(Cl)cc3)o2)c1 |
| 1170 s | Cc1ccc(C)c(S(=O)(=O)N2CCc3nc(-c4ccccc4)ncc3C2)c1 |
| 974 s | CCc1nn2c(CNC(=O)c3ccc(Cl)cc3)c(-c3ccccc3)nc2s1 |
| 940 s | CN(Cc1ccccc1)C(=O)Cn1cccc1-c1nnc(-c2ccccc2)o1 |
| 584 s | NC(=O)[C@@H]1C[C@H](Oc2cccnc2)CN1C(=O)CC1CCCC1 |
| 861 s | CCC(C)NC(=O)NCCC1CCN(S(=O)(=O)c2ccc(C)cc2)CC1 (stereo unspecified) |
| 741 s | CC1CC(=O)N(CC(=O)NCc2ccc3c(c2)OCO3)c2ccccc2S1 (stereo unspecified) |
| 574 s | CCN1CCN(CCNC(=O)c2ccc3c(c2)NC(=O)C2CCCCN32)CC1 (stereo unspecified) |
| 832 s | COc1ccccc1N1C(=O)c2cccc3cccc(c23)C1=O |
| 625 s | Cn1nc(-c2ccccc2)nc1C1CN(C(=O)NCC2CCCO2)C1 (stereo unspecified) |
| 960 s | COC(=O)Cn1nc(-c2nc(-c3cccc(Cl)c3)no2)ccc1=O |
| 640 s | COc1ccc(NC(=O)c2cc(NC(=O)C3CCC3)cc3nc(C)ccc23)cc1OC |
| 623 s | O=C(COc1ccc(Cl)cc1)NCC1(O)CCOCC1 |
| 1090 s | CCc1nc(-c2csc(S(=O)(=O)N3CCC(C(=O)Nc4cc(C)cc(C)c4)CC3)c2)no1 |
| 833 s | O=C(NCc1ccc(Cl)cc1)C1CC(=O)N(c2n[nH]c3cccc(F)c23)C1 (stereo unspecified) |
| 984 s | CCc1ccc(OC(C)C(=O)N(Cc2ccc(C)o2)C2CCS(=O)(=O)C2)cc1 (stereo unspecified) |
| 1190 s | COc1ccc(NC(=O)C2CCCN(c3nc4ccccc4nc3C(F)(F)F)C2)c(OC)c1 (stereo unspecified) |

| SMILES | RP-LC retention time |
| --- | --- |
| O=C(c1ccoc1)N1[C@H]2CC[C@@H]1c1cnc(-c3ccccc3)nc1C2 | 837 s |
| CC(C)n1cnc2cc(CNC(=O)c3nn(C)c4ccccc34)ccc21 | 629 s |

— the METLIN SMRT retention time set (Domingo-Almenara et al. 2019)
